The text below walks through data of PubChem BioAssay AID720512 (Broad Institute, 2013).

Calls of active or inactive are those of the source. No rule for the calls is given here.

One experiment has as its target Toxin B (TcdB) glycohydrolase, Clostridioides difficile 630. Description: TcdB glycohydrolase inhibitors, dose response, biochemical, cherry-pick, plate reader (AID 720512). As to conditions: recombinant TcdB glycohydrolase activity.
For orientation: AC50 means the concentration giving half of the maximal activity seen. Consider `Oc1ccc(/C=N/N2CCN(Cc3ccccc3)CC2)cc1`, for which the AC50 was > 39 µM (inactive).

Consider `Cc1ccc(C(=O)Nc2scc(-c3ccccc3)c2C(=O)O)cc1`, for which the AC50 was > 39 µM (inactive).

Turning to `COC1=C/C(=C/c2c(N)n3nc(CC(=O)N4CCOCC4)sc3nc2=O)C=CC1=O`, the AC50 is > 39 µM (inactive).

On to `CC(=O)Oc1ccc(/C=N/NC(=O)CCSc2ccccc2)cc1`, for which the AC50 was > 39 µM (inactive).

`O=C(CCn1c(=O)oc2cc(Cl)ccc21)Nc1ccc(O)cc1`: the AC50 was > 20 µM (inactive).

With `CCCNC(=O)C[C@H]1CC[C@@H]2[C@H](COc3ccc(NC(=O)c4ccc(Cl)cc4)cc3C(=O)N2C)O1`, the AC50 is > 39 µM (inactive).

On to `COC(=O)/C=C/C(=O)Nc1ccc(O)c(Cl)c1`, for which the concentration at half-maximal activity (AC50) was 20.9 µM.

On to `CCOc1ccccc1-n1c(=S)sc2c(=O)n(-c3ccc(F)cc3)c(SCC(=O)O)nc21`, for which the AC50 is > 39 µM (inactive).

The same experiment, now with this note: recombinant TcdB glycohydrolase activity, at 10 µM (top of the series).
Take `O=C1c2c(O)ccc(O)c2C(=O)c2c(NCCNCCO)ccc(NCCNCCO)c21`: the “activity change, negative = inhibition” value was “inactive”.

Still in this experiment, the particulars now being: recombinant TcdB glycohydrolase activity, at 19.5 µM (top of the series).
Turning to `c1ccc(Cc2nnc3n2N=C(c2ccccc2)CS3)cc1`, the “activity change, negative = inhibition” value was “inactive”.

`O=C(CNS(=O)(=O)c1ccc([N+](=O)[O-])cc1)N/N=C\c1ccc(O)cc1`: the “activity change, negative = inhibition” value is “inactive”.

For the molecule `O=C(/C=C/c1ccccc1)Nc1cccnc1Cl`, the “activity change, negative = inhibition” value was “inactive”.

On to `CC1(C)OC2C(O1)[C@@H](CO)O[C@H]2n1cnc2c(N)ncnc21` (some centres not stated), for which the “activity change, negative = inhibition” value is “inactive”.

On to `O=C(N/N=C/c1ccc(O)cc1)NC12CC3CC(CC(C3)C1)C2`, for which the “activity change, negative = inhibition” value is “inactive”.

Turning to `C/C(=N\Nc1ccc([N+](=O)[O-])cc1)c1cccc(N)c1`, the “activity change, negative = inhibition” value is “inactive”.

Consider `O=C(C[C@@H]1CC[C@@H]2[C@H](COC[C@H](O)CN2C(=O)c2ccccn2)O1)NC1CCC1`, for which the “activity change, negative = inhibition” value is “inactive”.

As to `COc1cc(/C(C)=N/NC(=O)CSc2nnc(C)s2)ccc1O`, the “activity change, negative = inhibition” value was “inactive”.

As for `CC(C)(C)C(=O)C1=C(O)C(=O)N(c2ccccc2)C1c1ccccc1` (configuration not stated), the “activity change, negative = inhibition” value was “inactive”.

With `CCOc1ccc(C(CC(=O)O)NC(=O)C23CC4CC(CC(C4)C2)C3)cc1OC` (configuration not stated), the “activity change, negative = inhibition” value was “inactive”.

Regarding `Cc1cc(C)c(S(=O)(=O)N2CCCCC2C(=O)O)c(C)c1` (configuration not stated), the “activity change, negative = inhibition” value was “inactive”.

For the molecule `COCCn1c(NC(=S)NC(=O)C2CC2)cc(=O)[nH]c1=O`, the “activity change, negative = inhibition” value was “inactive”.

With `O=S(=O)(Cc1cccc(F)c1)c1c[nH]c2ccccc12`, the “activity change, negative = inhibition” value is “inactive”.

For `CCOc1cc(/C=N/O)ccc1OCc1ccc(C)cc1`, the “activity change, negative = inhibition” value is “inactive”.

As for `CC(C)CC(=O)N1CCN(Cc2ccc(Br)cc2)CC1`, the “activity change, negative = inhibition” value was “inactive”.

As to `COCC#Cc1ccc2c(c1)O[C@@H](CN(C)C(=O)CC1CC1)[C@H](C)CN([C@@H](C)CO)S2(=O)=O`, the “activity change, negative = inhibition” value is “inactive”.

Take `Nc1ccc(-c2nc3ccc(N)cc3o2)cc1`: the “activity change, negative = inhibition” value was “inactive”.

As for `CCCCNS(=O)(=O)c1ccc(OCC(=O)OC)cc1`, the “activity change, negative = inhibition” value was “inactive”.

For the molecule `COc1ccccc1-n1c(SCC(=O)O)nc2c(sc(=S)n2-c2ccc(C)c(C)c2)c1=O`, the “activity change, negative = inhibition” value is “inactive”.

For the molecule `Cc1ccc(C2=NS(=O)(=O)N(C)C(C(=O)NC(C)c3ccccc3)=C2)cc1` (configuration not stated), the “activity change, negative = inhibition” value was “inactive”.

Regarding `CCc1ccc(Nc2n[n+](-c3ccccc3)c(-c3ccc(OC)c(Br)c3)s2)cc1`, the “activity change, negative = inhibition” value was “inactive”.

For `CCOc1ccc2ccccc2c1/C=N/NC(=O)c1ccncc1`, the “activity change, negative = inhibition” value is “inactive”.

Turning to `Cn1c(=O)[nH]c(=O)c2c1[nH]c(=S)n2CCCc1ccccc1`, the “activity change, negative = inhibition” value is “inactive”.

Consider `Cc1ccc(NNC(=O)c2ccno2)cc1C`, for which the “activity change, negative = inhibition” value was “inactive”.

As to `CCOC(=O)c1sc2nc(OCCN3CCOCC3)cc(C)c2c1N`, the “activity change, negative = inhibition” value was “inactive”.

With `CC(=O)NC(Cc1ccccc1)C(=O)Oc1ccc2ccccc2c1` (configuration not stated), the “activity change, negative = inhibition” value is “inactive”.

On to `Cc1cccc(/C=C/c2onc(C)c2S(=O)(=O)N2CCC(C(=O)N3CCCCC3)CC2)c1`, for which the “activity change, negative = inhibition” value is “inactive”.

`Cc1cccn2c(CN(C)C3CCCc4ccccc43)c(C(=O)N3CCOCC3)nc12` (configuration not stated): the “activity change, negative = inhibition” value is “inactive”.

With `Nc1cc(N)cc(C(=O)OCC(=O)Nc2cc(S(=O)(=O)N3CCCCC3)ccc2Cl)c1`, the “activity change, negative = inhibition” value was “inactive”.

In the case of `NC(=O)NN=C1CC2CC1C1C=CCC21` (configuration not stated), the “activity change, negative = inhibition” value was “inactive”.

As for `O=C(Cc1ccccc1)NNC(=S)NC(=O)c1cccnc1`, the “activity change, negative = inhibition” value was “inactive”.

Consider `COc1cc(/C=N/NC(=O)C2(O)c3ccccc3-c3ccccc32)ccc1O`, for which the “activity change, negative = inhibition” value is “inactive”.

With `COc1ccccc1C=C1SC(=S)NC1=O`, the “activity change, negative = inhibition” value is “inactive”.

On to `Cc1cscc1-c1nc(NCC2CC2)nc2ccsc12`, for which the “activity change, negative = inhibition” value is “inactive”.

As for `COc1ccc(/C=C2/C(=O)C(C)(C(C)C)CCC2C)cc1` (configuration not stated), the “activity change, negative = inhibition” value is “inactive”.

On to `Cc1ccc(NCCN(C)C)c2c(=O)c3cc(O)ccc3sc12`, for which the “activity change, negative = inhibition” value was “inactive”.

Turning to `CCCNC(=O)C1CCN(S(=O)(=O)c2c(C)noc2/C=C\c2ccc(OC)cc2)CC1`, the “activity change, negative = inhibition” value was “inactive”.

`CC(N)C(=O)NC(C(=O)N1CCCC1C(=O)NC(c1ccccc1)c1ccccc1)C(C)C` (configuration not stated): the “activity change, negative = inhibition” value is “inactive”.

With `CC1C(=O)C(C)C(c2ccc([N+](=O)[O-])cc2)NC1c1ccc([N+](=O)[O-])cc1` (configuration not stated), the “activity change, negative = inhibition” value was “inactive”.

Turning to `COc1ccc(C2=NS(=O)(=O)N(C)C(C(=O)NCc3ccc4c(c3)OCO4)=C2)cc1OC`, the “activity change, negative = inhibition” value was “inactive”.

For the molecule `CC(=O)C1=CCC(c2ccc(C)cc2)N(S(=O)(=O)c2ccc(C)cc2)C1` (configuration not stated), the “activity change, negative = inhibition” value is “inactive”.

As for `COc1cc(/C=C/C(=O)OCC(=O)N(C)Cc2ccccc2)ccc1O`, the “activity change, negative = inhibition” value was “inactive”.

Turning to `Cn1c(=O)c2c(nc(N3CCOCC3)n2CCSc2ncccn2)n(C)c1=O`, the “activity change, negative = inhibition” value was “inactive”.

Consider `O=C1CCCC2=C1Sc1ccccc1N2`, for which the “activity change, negative = inhibition” value is “inactive”.

`CCCNC(=O)N1CC[C@@H]2[C@H]1c1cc(-c3ccccc3)ccc1N(C)[C@H]2CO`: the “activity change, negative = inhibition” value is “inactive”.

As to `CNC(=O)C[C@@H]1CC[C@H]2[C@H](COc3ccc(NS(=O)(=O)c4ccccc4C)cc3C(=O)N2C)O1`, the “activity change, negative = inhibition” value is “inactive”.

As to `COc1ccc(C(O)(C(C)C)C(CN2CCOCC2)c2ccccc2)cc1` (configuration not stated), the “activity change, negative = inhibition” value was “inactive”.

In the case of `O=C(NC(=S)NCc1ccccc1)c1cccnc1`, the “activity change, negative = inhibition” value is “inactive”.

Turning to `CC(=O)Nc1cccc(NC(=O)c2ccc(Br)cc2)c1`, the “activity change, negative = inhibition” value is “inactive”.

`COC(=O)C1=C(c2ccc(F)cc2OCc2ccccc2)C[C@@H]2CC[C@H]1N2C(=O)NCCOc1ccccc1`: the “activity change, negative = inhibition” value is “inactive”.

In the case of `CC(C)(C)c1cc(Cl)c(O)c(NC(=S)NC(=O)c2cccnc2)c1`, the “activity change, negative = inhibition” value was “inactive”.

As for `CCOC(=O)c1nnn(-c2nonc2N)c1-c1ccccc1Cl`, the “activity change, negative = inhibition” value is “inactive”.

With `Cc1ccc(C(=O)OCC(=O)c2cc(C)n(CC3CCCO3)c2C)cc1` (configuration not stated), the “activity change, negative = inhibition” value is “inactive”.

As for `COc1cc(-c2noc(C)c2C#CC2(O)CCCCC2)cc(OC)c1OC`, the “activity change, negative = inhibition” value is “inactive”.

Take `COc1ccccc1C1=NNC(=NCc2ccccc2)SC1`: the “activity change, negative = inhibition” value was “inactive”.

`Cc1ccc(C(=O)Nc2ccc(N3CCCCC3)cc2)cc1`: the “activity change, negative = inhibition” value is “inactive”.

For `C=CCOc1cccc(CNc2ccc3[nH]c(=O)[nH]c3c2)c1`, the “activity change, negative = inhibition” value is “inactive”.

For `O=C(CN1C(=O)CCC1=O)NNc1ccc2ccccc2c1`, the “activity change, negative = inhibition” value was “inactive”.

For the molecule `COc1ccc(/C=N/n2c(-c3cc(C)[nH]n3)n[nH]c2=S)cc1OC`, the “activity change, negative = inhibition” value was “inactive”.

Turning to `COc1cc(C=NNC(=O)c2ccccc2-n2cccc2)ccc1O`, the “activity change, negative = inhibition” value was “inactive”.

`COc1ccc(S(=O)(=O)N2CCC[C@H]2C(=O)N2CCC[C@H]2C(=O)NCc2ccncc2)cc1C`: the “activity change, negative = inhibition” value is “inactive”.

As for `CNC(=S)N/N=C/c1c(C(=O)OC)cnn1-c1ccc(F)cc1F`, the “activity change, negative = inhibition” value was “inactive”.

On to `COc1ccc(Cl)cc1NC(=O)CSc1nnc(-c2ccco2)o1`, for which the “activity change, negative = inhibition” value was “inactive”.

Regarding `COc1ccc(C(NC(C)=O)c2cc(Cl)c3cccnc3c2O)cc1` (configuration not stated), the “activity change, negative = inhibition” value was “inactive”.

For the molecule `Cc1ccc(C2=NS(=O)(=O)N(C)C(C(=O)NCc3ccc(F)cc3)=C2)cc1`, the “activity change, negative = inhibition” value was “inactive”.

As for `O=c1[nH][nH]c(=O)c2c1[nH]c(=S)n2Cc1ccccc1`, the “activity change, negative = inhibition” value was “inactive”.

As for `O=C1NN=C2CCCCCCC12` (configuration not stated), the “activity change, negative = inhibition” value was “inactive”.

Regarding `O=C(N/N=C/c1cccc([N+](=O)[O-])c1)c1ccc(Br)cc1`, the “activity change, negative = inhibition” value was “inactive”.

As to `CC(Sc1nc(N)cc(=O)[nH]1)C(=O)NCC(=O)Nc1ccc(F)c(F)c1F` (configuration not stated), the “activity change, negative = inhibition” value is “inactive”.

For `Cc1[nH]c(=O)c(C#N)c2c1CCCC2`, the “activity change, negative = inhibition” value was “inactive”.

Regarding `COc1ccc(CNC(=O)C2=CC(c3ccc(OC)c(OC)c3)=NS(=O)(=O)N2C)cc1`, the “activity change, negative = inhibition” value is “inactive”.

Turning to `CCCCNC(=O)C1CCN(S(=O)(=O)c2c(C)noc2/C=C\c2ccc(OC)cc2)CC1`, the “activity change, negative = inhibition” value is “inactive”.

With `CC1(C)CC(=O)C(C=Nc2ccc(O)cc2)=C(O)C1`, the “activity change, negative = inhibition” value was “inactive”.
